The values below come from patent publication US12187712B2, “Cardiac sarcomere inhibitors” (Cytokinetics, Inc., priority 2018, dated 2025).

In this test the target is T1, bovine cardiac myofibrils (Bos taurus, UniProt Q9BE39).
T1 construct: full-length cardiac myosin in the context of the native sarcomere, skinned myofibril assays were performed; from tissue; host or cells: bovine cardiac left ventricular tissue, detergent-skinned (Triton X-100) myofibrils
Put plainly: Skinned myofibril ATPase assay (PK/LDH-coupled), CDMF75. The class given is biochemical. Conditions: inhibition of steady-state ATPase activity of bovine cardiac myofibrils at 75% Ca2+ activation (pCa75). Here is the method: To evaluate the effect of compounds on the ATPase activity of full-length cardiac myosin in the context of the native sarcomere, skinned myofibril assays were performed. Bovine cardiac myofibrils were obtained by homogenizing bovine cardiac left ventricular tissue in the presence of a detergent such as triton X-100. Such treatment removes membranes and a majority of the soluble cytoplasmic proteins but leaves intact the cardiac sarcomeric acto-myosin apparatus. Myofibril preparations retain the ability to hydrolyze ATP in an Ca^2+ regulated manner. ATPase activities of such myofibril preparations in the presence and absence of compounds were assayed at Ca^2+ concentrations activating to a defined fraction of the maximal rate (i.e., 25%, 75%). Small molecule agents were assessed for their ability to inhibit the steady-state ATPase activity of bovine cardiac myofibrils using pyruvate kinase and lactate dehydrogenase (PK/LDH)-coupled enzyme system. This assay regenerates myosin-produced ADP into ATP by oxidizing NADH, producing an absorbance change at 340 nm. Prior to testing small molecule agents, the bovine cardiac myofibrils were assessed for their calcium responsiveness and the calcium concentration that achieves either a 50% (pCa50) or 75% (pCa75) activation of the myofibril system was chosen as the final condition for assessing the inhibitory activity of the small molecule agents. All enzymatic activity was measured in a buffered solution containing 12 mM PIPES (piperazine-N,N′-bis(2-ethanesulfonic acid), 2 mM magnesium chloride at pH 6.8 (PM 12 buffer). Final assay conditions were 1 mg/mL of bovine cardiac myofibrils, 4 U/mL pyruvate kinase, 6 U/mL lactate dehydrogenase, 50 μM ATP, 0.1 mg/mL BSA (bovine serum albumin), 10 ppm antifoam, 1 mM DTT, 0.5 mM NADH, 1.5 mM PEP, 0.6 mM EGTA, and an amount of CaCl2 sufficient to achieve either 50% or 75% activation of the myofibril ATPase activity. Results for compounds tested are provided in Table A. Compounds tested were prepared in accordance with the synthetic procedures described herein.

T1 sequence (Q9BE39 whole entry): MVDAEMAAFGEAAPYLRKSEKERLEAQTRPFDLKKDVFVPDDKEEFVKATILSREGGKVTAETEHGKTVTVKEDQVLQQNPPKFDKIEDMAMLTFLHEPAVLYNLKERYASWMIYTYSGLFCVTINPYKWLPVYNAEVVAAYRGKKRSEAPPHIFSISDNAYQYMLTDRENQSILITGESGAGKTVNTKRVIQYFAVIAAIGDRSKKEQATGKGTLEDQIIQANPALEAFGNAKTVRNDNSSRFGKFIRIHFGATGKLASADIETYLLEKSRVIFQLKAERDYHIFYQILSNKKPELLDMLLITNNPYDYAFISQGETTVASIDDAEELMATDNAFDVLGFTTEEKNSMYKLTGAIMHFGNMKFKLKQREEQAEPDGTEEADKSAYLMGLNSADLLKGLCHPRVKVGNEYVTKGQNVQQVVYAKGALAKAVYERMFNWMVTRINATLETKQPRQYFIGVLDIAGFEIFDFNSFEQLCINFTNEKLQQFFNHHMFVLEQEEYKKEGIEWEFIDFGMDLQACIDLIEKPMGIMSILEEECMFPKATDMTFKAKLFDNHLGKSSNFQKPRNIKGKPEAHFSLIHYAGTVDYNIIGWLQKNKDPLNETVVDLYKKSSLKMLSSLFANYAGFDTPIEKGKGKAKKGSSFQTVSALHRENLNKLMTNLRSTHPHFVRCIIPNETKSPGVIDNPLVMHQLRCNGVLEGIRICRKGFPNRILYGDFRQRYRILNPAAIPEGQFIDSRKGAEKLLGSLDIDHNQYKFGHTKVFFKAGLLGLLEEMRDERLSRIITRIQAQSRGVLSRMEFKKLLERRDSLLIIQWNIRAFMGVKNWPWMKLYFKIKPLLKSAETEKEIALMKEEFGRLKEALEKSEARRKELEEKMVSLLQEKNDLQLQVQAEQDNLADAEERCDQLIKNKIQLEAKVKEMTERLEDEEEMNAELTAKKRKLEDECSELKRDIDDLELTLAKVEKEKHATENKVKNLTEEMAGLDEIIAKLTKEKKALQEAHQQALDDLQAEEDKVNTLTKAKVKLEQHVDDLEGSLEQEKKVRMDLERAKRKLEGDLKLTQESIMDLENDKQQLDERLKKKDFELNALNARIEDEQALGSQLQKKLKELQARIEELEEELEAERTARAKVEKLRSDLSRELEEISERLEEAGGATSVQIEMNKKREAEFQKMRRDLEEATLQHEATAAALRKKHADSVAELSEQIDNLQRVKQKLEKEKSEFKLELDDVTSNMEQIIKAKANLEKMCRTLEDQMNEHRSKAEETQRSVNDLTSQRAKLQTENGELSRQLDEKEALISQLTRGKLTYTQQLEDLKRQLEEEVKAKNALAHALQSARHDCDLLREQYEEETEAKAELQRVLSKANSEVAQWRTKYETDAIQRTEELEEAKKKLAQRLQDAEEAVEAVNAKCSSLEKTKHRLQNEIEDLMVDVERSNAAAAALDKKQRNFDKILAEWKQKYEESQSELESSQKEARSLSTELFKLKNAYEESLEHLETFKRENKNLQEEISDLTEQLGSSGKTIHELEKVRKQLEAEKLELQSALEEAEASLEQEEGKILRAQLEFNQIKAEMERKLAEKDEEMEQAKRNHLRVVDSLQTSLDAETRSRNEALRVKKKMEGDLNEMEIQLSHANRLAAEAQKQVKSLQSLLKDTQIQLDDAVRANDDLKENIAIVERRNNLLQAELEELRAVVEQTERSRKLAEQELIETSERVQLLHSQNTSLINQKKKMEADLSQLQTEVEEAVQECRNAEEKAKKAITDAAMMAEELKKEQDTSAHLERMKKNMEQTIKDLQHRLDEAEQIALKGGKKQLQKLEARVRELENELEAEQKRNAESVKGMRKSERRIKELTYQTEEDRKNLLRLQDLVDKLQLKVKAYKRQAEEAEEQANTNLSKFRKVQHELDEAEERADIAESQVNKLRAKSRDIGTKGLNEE
T1 sequence (P85100 whole entry partner): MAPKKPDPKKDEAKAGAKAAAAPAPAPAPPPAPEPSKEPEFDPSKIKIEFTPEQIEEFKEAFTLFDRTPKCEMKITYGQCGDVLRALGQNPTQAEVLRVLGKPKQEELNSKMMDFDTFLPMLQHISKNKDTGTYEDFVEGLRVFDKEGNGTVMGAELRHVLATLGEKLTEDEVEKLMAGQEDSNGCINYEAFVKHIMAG
T1 sequence (Q3SZE5 whole entry partner): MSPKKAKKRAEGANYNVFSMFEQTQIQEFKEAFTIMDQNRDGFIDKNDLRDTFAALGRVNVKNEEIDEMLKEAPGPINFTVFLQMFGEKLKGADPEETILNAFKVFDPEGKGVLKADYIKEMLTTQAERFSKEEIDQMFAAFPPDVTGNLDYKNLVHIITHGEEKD

Turning to `Cc1nc(-c2ccc(CNc3cncc(Cl)n3)cc2)no1` [Compound 1, 6-chloro-N-(4-(5-methyl-1,2,4-oxadiazol-3-yl)benzyl)pyrazin-2-amine], the “CDMF75 IC15” value was 1.4 µM and the IC50 turned out to be 8.1 µM.

As to `Cc1nc(-c2ccc(CNc3cnccn3)cc2)no1` [Compound 2, N-(4-(5-methyl-1,2,4-oxadiazol-3-yl)benzyl)pyrazin-2-amine], the “CDMF75 IC15” value stood at 0.8 µM and 4.3 µM corresponded to half-maximal inhibition (IC50). Take `Cc1nc(-c2ccc(CNc3ccncn3)cc2)no1` [Compound 3, N-(4-(5-methyl-1,2,4-oxadiazol-3-yl)benzyl)pyrimidin-4-amine]: the “CDMF75 IC15” value was 3.6 µM and the concentration for half-maximal inhibition (IC50) was 27.7 µM. The like results for `Cc1cc(NCc2ccc(-c3noc(C)n3)cc2)ncn1` [Compound 4, 6-methyl-N-(4-(5-methyl-1,2,4-oxadiazol-3-yl)benzyl)pyrimidin-4-amine] were, in that order, 1.9 µM and 6.6 µM. In the case of `Cc1nc(-c2ccc(CNc3cc(C(F)(F)F)ncn3)cc2)no1` [Compound 5, N-(4-(5-methyl-1,2,4-oxadiazol-3-yl)benzyl)-6-(trifluoromethyl)pyrimidin-4-amine], the IC50 was found to be 3.7 µM. Same read-out and setting: the value for `Cc1nc(-c2ccc(CNc3cc(C4CC4)ncn3)cc2)no1` [Compound 6, 6-cyclopropyl-N-(4-(5-methyl-1,2,4-oxadiazol-3-yl)benzyl)pyrimidin-4-amine] was 27 µM.

As to `Cc1nc(-c2ccc(CNc3cc(C#N)ncn3)cc2)no1` [Compound 7, 6-((4-(5-methyl-1,2,4-oxadiazol-3-yl)benzyl)amino)pyrimidine-4-carbonitrile], the IC50 turned out to be 1.8 µM.

With `CCc1cc(NCc2ccc(-c3noc(C)n3)cc2)ncn1` [Compound 8, 6-ethyl-N-(4-(5-methyl-1,2,4-oxadiazol-3-yl)benzyl)pyrimidin-4-amine], the “CDMF75 IC15” value was 3.1 µM and the concentration for half-maximal inhibition (IC50) worked out at 16.6 µM. On to `Cc1nc(-c2ccc(CNc3cc(Cl)ncn3)cc2)no1` [Compound 9, 6-chloro-N-(4-(5-methyl-1,2,4-oxadiazol-3-yl)benzyl)pyrimidin-4-amine], for which the “CDMF75 IC15” value was 0.3 µM and the IC50 was 1.2 µM.

In the case of `Cc1nc(-c2ccc(CNc3cnc(C#N)cn3)cc2)no1` [Compound 10, 5-((4-(5-methyl-1,2,4-oxadiazol-3-yl)benzyl)amino)pyrazine-2-carbonitrile], the “CDMF75 IC15” value came to 1.3 µM and it took 7.6 µM to reach half-maximal inhibition (IC50). With `CCc1nc(-c2ccc(CNc3cc(C#N)ncn3)cc2)no1` [Compound 11, 6-((4-(5-ethyl-1,2,4-oxadiazol-3-yl)benzyl)amino)pyrimidine-4-carbonitrile], the “CDMF75 IC15” value was determined as 0.2 µM and the IC50 came out at 0.7 µM. The like results for `Cc1nc(-c2ccc(CNc3ccnc(Cl)n3)cc2)no1` [Compound 12, 2-chloro-N-(4-(5-methyl-1,2,4-oxadiazol-3-yl)benzyl)pyrimidin-4-amine] were, in that order, 2.5 µM and 9.8 µM. Turning to `Cc1nc(-c2ccc(CNc3cnc(Cl)cn3)cc2)no1` [Compound 13, 5-chloro-N-(4-(5-methyl-1,2,4-oxadiazol-3-yl)benzyl)pyrazin-2-amine], the “CDMF75 IC15” value came to 0.3 µM and the midpoint of inhibition, the IC50, lay at 1.5 µM.

For the compound `Cc1nc(-c2ccc(CNc3ccc(C#N)cn3)cc2)no1` [Compound 14, 6-((4-(5-methyl-1,2,4-oxadiazol-3-yl)benzyl)amino) nicotinonitrile], the “CDMF75 IC15” value was 4.6 µM and the IC50 was determined as 20.9 µM. The like results for `Cc1nc(-c2ccc(CNc3cc(C#N)ccn3)cc2)no1` [Compound 15, 2-((4-(5-methyl-1,2,4-oxadiazol-3-yl)benzyl)amino) isonicotinonitrile] were, in that order, 1.0 µM and 5.5 µM. With `Cc1nc(-c2ccc(CNc3cnc(C(F)(F)F)cn3)cc2)no1` [Compound 16, N-(4-(5-methyl-1,2,4-oxadiazol-3-yl)benzyl)-5-(trifluoromethyl)pyrazin-2-amine], the “CDMF75 IC15” value amounted to 3.1 µM and half-maximal inhibition (IC50) required 17.3 µM. Regarding `Cc1nc(-c2ccc(CNc3cc(C#N)ncn3)nc2)no1` [Compound 17, 6-(((5-(5-methyl-1,2,4-oxadiazol-3-yl)pyridin-2-yl)methyl)amino)pyrimidine-4-carbonitrile], the “CDMF75 IC15” value amounted to 2.9 µM and the IC50 amounted to 18.9 µM. Regarding `Cc1noc(-c2ccc(CNc3cc(Cl)ncn3)cc2)n1` [Compound 18, 6-chloro-N-(4-(3-methyl-1,2,4-oxadiazol-5-yl)benzyl)pyrimidin-4-amine], the “CDMF75 IC15” value is 0.4 µM and the half-inhibitory concentration (IC50) was 2.1 µM. Regarding `Cc1nc(-c2ccc(CNc3ccc(Cl)cn3)cc2)no1` [Compound 20, 5-chloro-N-(4-(5-methyl-1,2,4-oxadiazol-3-yl)benzyl)pyridin-2-amine], the “CDMF75 IC15” value worked out at 1.5 µM and inhibition was half-maximal at 5.2 µM (IC50).

On to `Cc1nc(-c2ccc(C(C)Nc3cc(Cl)ncn3)cc2)no1` (stereo not drawn) [Compound 21, 6-chloro-N-(1-(4-(5-methyl-1,2,4-oxadiazol-3-yl)phenyl)ethyl)pyrimidin-4-amine], for which the “CDMF75 IC15” value was 2.2 µM and the IC50 was 12.8 µM. `c1cnc(NCc2ccc(-c3noc(C4CC4)n3)cc2)cn1` [Compound 22, N-(4-(5-cyclopropyl-1,2,4-oxadiazol-3-yl)benzyl)pyrazin-2-amine]: the “CDMF75 IC15” value turned out to be 0.4 µM and 1.8 µM corresponded to half-maximal inhibition (IC50). The like results for `c1cnc(NCc2ccc(-c3noc(C4CCC4)n3)cc2)cn1` [Compound 23, N-(4-(5-cyclobutyl-1,2,4-oxadiazol-3-yl)benzyl)pyrazin-2-amine] were, in that order, 0.3 µM and 1.4 µM. The like results for `FC(F)c1nc(-c2ccc(CNc3cnccn3)cc2)no1` [Compound 24, N-(4-(5-(difluoromethyl)-1,2,4-oxadiazol-3-yl)benzyl)pyrazin-2-amine] were, in that order, 0.8 µM and 3.1 µM.

On to `FCc1nc(-c2ccc(CNc3cnccn3)cc2)no1` [Compound 25, N-(4-(5-(fluoromethyl)-1,2,4-oxadiazol-3-yl)benzyl)pyrazin-2-amine], for which the “CDMF75 IC15” value worked out at 1.1 µM and the IC50 was found to be 4.5 µM. The like results for `Cc1nc(-c2ccc(C(C)Nc3cnccn3)cc2)no1` (stereo not drawn) [Compound 26, N-(1-(4-(5-methyl-1,2,4-oxadiazol-3-yl)phenyl)ethyl)pyrazin-2-amine] were, in that order, 1.1 µM and 5.6 µM.

As to `Cc1cnc(-c2ccc(CNc3cc(Cl)ncn3)cc2)o1` [Compound 27, 6-chloro-N-(4-(5-methyloxazol-2-yl)benzyl)pyrimidin-4-amine], the “CDMF75 IC15” value came to 1.2 µM and the midpoint of inhibition, the IC50, lay at 8.9 µM. On to `Cc1cnn(-c2ccc(CNc3cnccn3)cc2)c1` [Compound 29, N-(4-(4-methyl-1H-pyrazol-1-yl)benzyl)pyrazin-2-amine], for which the “CDMF75 IC15” value worked out at 8.1 µM and the IC50 is 38.9 µM. The like results for `COC(=O)c1nc(-c2ccc(CNc3cnccn3)cc2)no1` [Compound 30, methyl 3-(4-((pyrazin-2-ylamino)methyl)phenyl)-1,2,4-oxadiazole-5-carboxylate] were, in that order, 0.5 µM and 2.6 µM. The like results for `C[C@@H](Nc1cnccn1)c1ccc(-c2noc(C3CC3)n2)cc1` [Compound 31, (R)-N-(1-(4-(5-cyclopropyl-1,2,4-oxadiazol-3-yl)phenyl)ethyl)pyrazin-2-amine] were, in that order, 0.4 µM and 1.51 µM. Take `C[C@@H](Nc1cnccn1)c1ccc(-c2noc(C3CCC3)n2)cc1` [Compound 32, (R)-N-(1-(4-(5-cyclobutyl-1,2,4-oxadiazol-3-yl)phenyl)ethyl)pyrazin-2-amine]: the “CDMF75 IC15” value is 0.3 µM and the IC50 is 1.4 µM. For the compound `C[C@@H](Nc1cnccn1)c1ccc(-c2noc(C(F)F)n2)cc1` [Compound 33, (R)-N-(1-(4-(5-(difluoromethyl)-1,2,4-oxadiazol-3-yl)phenyl)ethyl)pyrazin-2-amine], the “CDMF75 IC15” value was found to be 0.3 µM and the IC50 was 1.5 µM. As for `CC(C)c1nc(-c2ccc([C@@H](C)Nc3cnccn3)cc2)no1` [Compound 35, (R)-N-(1-(4-(5-isopropyl-1,2,4-oxadiazol-3-yl)phenyl)ethyl)pyrazin-2-amine], the “CDMF75 IC15” value was determined as 0.7 µM and the concentration for half-maximal inhibition (IC50) turned out to be 3 µM. The like results for `C[C@@H](Nc1cnccn1)c1ccc(-c2noc(C(C)(C)C)n2)cc1` [Compound 36, (R)-N-(1-(4-(5-(tert-butyl)-1,2,4-oxadiazol-3-yl)phenyl)ethyl)pyrazin-2-amine] were, in that order, 7.1 µM and 36.5 µM.

As usually defined, the IC50 is the concentration at which inhibition is half-maximal. A lower IC50 goes with inhibition by little substance.
